Here are results for 19 compounds from PubChem BioAssay (NCI).

Test in all cases: DTP human tumour cell line panel, 48 h
For assay [1], the system named is A498 renal.
Assay [2] has as its system A549 NSCLC.
Assay [3] has as its system ACHN renal.
Assay [4] relates to CAKI-1 renal.
Assay [5] deals with HT29 colon.
In assay [6] the test system is MCF7 breast.
For assay [7], the system named is MDA-MB-435.
Assay [8] has as its system MOLT-4 leukemia.
Assay [9] has as its system NCI/ADR-RES ovarian.
In assay [10] the test system is RPMI-8226 leukemia.
The test system of assay [11] is SN12C renal.
Assay [12] deals with SNB-19 CNS.
In assay [13] the test system is SW-620 colon.
The subject of assay [14] is SF-268 CNS.

Several values for one entry are separate records, joined by “and”; a condition that tells them apart may be missing. Identical values can stand only once.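 Dose response: 5 concentrations. Exposure: 48 h. Format: 96-well plates. Endpoint: linear interpolation; highest concentration if not reached. The concentration for 50% growth inhibition is given as GI50. TGI marks complete inhibition of growth.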

On to `O=C1NC(=O)C(C(c2ccc(Cl)cc2)C2C(=O)NC(=O)NC2=O)C(=O)N1`, for which the TGI in assay [1], in assay [2], in [3], in assay [4], in assay [5] and in assay [6] was above 100 µM in each case. Moreover, the TGI in assay [7], in assay [8], in [9], in assay [10], in assay [11] and in [12] was above 100 µM in each case. The compound further showed a concentration for total growth inhibition (TGI) in [13] above 100 µM.
Take `CC(C)(C)OC(=O)NC(Cc1cnc[nH]1)C(=O)N1CCCC1C(N)=O` (stereo not drawn): the TGI in assay [1], in [2], in assay [3], in assay [4], in assay [5] and in [6] was above 100 µM in each case. Moreover, the TGI in [7], in assay [8], in assay [9], in assay [10], in [14] and in assay [11] was above 100 µM throughout. Besides, the TGI in assay [12] and in [13] was above 100 µM in each case.
Take `COc1ccc(N[C@H](CS(=O)c2ccc(C)cc2)C(F)(F)C(F)(F)F)cc1` (stereo partly drawn): the TGI in [1], in assay [2], in [3], in assay [4], in assay [5] and in assay [6] was above 100 µM in each case. The concentration for total growth inhibition (TGI) in [7], in assay [8], in assay [9], in assay [10], in [14] and in [11] was above 100 µM throughout. The total growth inhibition concentration (TGI) in assay [12] and in assay [13] was above 100 µM in each case.
For the compound `COc1cc2c(cc1OC)C1(c3ccccc3)CN(C2)Cc2cc(OC)c(OC)cc21`, the TGI in assay [1], in assay [2], in assay [3], in assay [4], in [5] and in [6] was above 100 µM throughout. The total growth inhibition concentration (TGI) is 54.8 µM in [7]; 84.7 µM in [8]; 74.9 µM in assay [9]; 80.2 µM in assay [10]; above 100 µM in assay [14]; above 100 µM in assay [11]. Further, the TGI in assay [12] and in assay [13] was above 100 µM in each case.
For `CC1=CCC[C@@H]2[C@@](C)(Cc3cc(O)ccc3O)[C@H](C)CC[C@@]12C`, the concentration for total growth inhibition (TGI) is 32.7 µM in assay [1]; 17.6 µM in [2]; 18 µM in [3]; 25.7 µM in [4]; 42.7 µM in assay [5]; 18.7 µM in assay [6]. Also, the TGI in assay [7] is 19.5 µM; in assay [8], 15 µM; in assay [9], 18.9 µM; in assay [10], 21.7 µM; in [14], 24 µM; in assay [11], 27 µM. Besides, the total growth inhibition concentration (TGI) came out at 21.5 µM in assay [12] and 25.2 µM in [13].
On to `O=C(Nc1ccccc1C(=O)O)/C(=C/c1ccccc1)NC(=O)c1ccccc1`, for which the concentration for total growth inhibition (TGI) in assay [1], in [2], in [3], in assay [4], in assay [5] and in [6] was above 100 µM each time. The total growth inhibition concentration (TGI) in assay [7], in assay [8], in [9], in assay [10], in assay [14] and in assay [11] was above 100 µM throughout. Further, the TGI in assay [12] and in assay [13] was above 100 µM in each case.
Regarding `CC1OC(OC2C(O)COC(OC3C(C)OC(OC4C(OC(=O)[C@]56CCC(C)(C)C[C@@H]5C5=CCC7[C@@]8(C)C[C@H](O)[C@H](OC9OC(CO)C(O)C(OC%10OC(CO)C(O)C(O)C%10O)C9O)[C@@](C)(CO)[C@@H]8CC[C@@]7(C)[C@]5(C)CC6)OCC(O)C4O)C(O)C3OC3OCC(O)C(O)C3O)C2O)C(O)C(O)C1O` (stereo partly drawn), the TGI in [1] stood at 5 µM; in assay [2], 4.29 µM; in assay [3], 19.5 µM; in [4], 16.3 µM; in [5], 33.9 µM; in [6], 43.5 µM. Further, the total growth inhibition concentration (TGI) in assay [7] came out at 7.72 µM; in assay [8] it was 36.1 µM; in assay [9], 26.4 µM; in assay [10], 76.8 µM; in assay [14], 30 µM; in assay [11] it was 3.87 µM. In addition, the concentration for total growth inhibition (TGI) in assay [12] was 20.3 µM; in assay [13] it was 20.6 µM.
For `COC(=O)C1C2C=CC(C2)N1S(=O)(=O)c1ccccc1` (stereo not drawn), the total growth inhibition concentration (TGI) in assay [1], in assay [2], in assay [3], in assay [4], in [5] and in [6] was above 100 µM in each case. Further, the concentration for total growth inhibition (TGI) in assay [7], in assay [8], in assay [9], in assay [10], in [14] and in [11] was above 100 µM throughout. Also, the TGI in [12] and in assay [13] was above 100 µM in each case.
On to `CC(=O)Nc1cc2c(cc1O)CC[C@@H]1[C@@H]2CC[C@]2(C)[C@@H](O)CC[C@@H]12`, for which the total growth inhibition concentration (TGI) in assay [1] was 70.7 µM; in assay [2], above 100 µM; in [3], above 100 µM; in assay [4] it was above 100 µM; in assay [5] it was above 100 µM; in assay [6] it was above 100 µM. The concentration for total growth inhibition (TGI) in assay [7] was 50.8 µM; in assay [8], above 100 µM; in assay [9], 55.9 µM; in assay [10] it was above 100 µM; in assay [14], 68.8 µM; in assay [11] it was above 100 µM. The total growth inhibition concentration (TGI) in [12] is above 100 µM; in [13], 71.9 µM. Also, the GI50 in [11] was 48.5 µM.
Regarding `O=c1cc(-c2ccccc2)oc2ccc(Oc3nnnn3-c3ccccc3)cc12`, the TGI was above 100 µM in assay [1]; above 100 µM in assay [2]; above 100 µM in assay [3]; above 86.5 µM in assay [4]; above 100 µM in assay [5]; above 100 µM in assay [6]. Also, the concentration for total growth inhibition (TGI) in assay [7] is above 41.9 µM; in assay [8], above 100 µM; in [9], above 100 µM; in assay [10], above 100 µM; in assay [14] it was 25.3 µM; in assay [11], above 100 µM. The TGI was above 82.6 µM in [12] and above 100 µM in assay [13].
In the case of `CN(C)C=Nc1cccc2cnccc12`, the TGI in [1], in [2], in assay [3], in assay [4], in assay [5] and in assay [6] was above 100 µM throughout. Also, the TGI in assay [7], in assay [8], in assay [9], in assay [10], in [14] and in [11] was above 100 µM throughout. In assay [12], this compound yielded a concentration for total growth inhibition (TGI) above 100 µM.
`CCOC(=O)c1cccc([N+](=O)[O-])c1N`: the total growth inhibition concentration (TGI) in assay [1], in [2], in assay [3], in [4], in assay [5] and in assay [6] was above 100 µM each time. Further, the concentration for total growth inhibition (TGI) in assay [7], in assay [8], in assay [9], in [10], in [11] and in assay [12] was above 100 µM throughout. In assay [13], the concentration for total growth inhibition (TGI) is above 100 µM.
As to `CCCN(CCCCN1C(=O)c2ccccc2C1=O)CC1COc2ccccc2O1` (stereo not drawn), the TGI in assay [1], in assay [2], in assay [3], in assay [4], in assay [5] and in assay [6] was above 100 µM in each case. Also, the TGI in [7] is above 100 µM; in assay [8] it was 66.5 µM; in assay [9], above 100 µM; in assay [10], 84.9 µM; in [14], above 100 µM; in assay [11], above 100 µM. Further, the TGI in assay [12] and in assay [13] was above 100 µM in each case.
`C=C1CC(Cn2cc(C)c(=O)[nH]c2=O)(c2ccc(-c3ccccc3)cc2)OC1=O` (stereo not drawn): the TGI in assay [1] stood at 16.9 µM; in [2] it was 23 µM; in [3] it was 6.65 µM; in [4], 4.94 µM; in [5], 2.42 µM; in assay [6] it was 5.87 µM. Moreover, the total growth inhibition concentration (TGI) in [7] turned out to be 3.74 µM; in assay [8] it was 2.8 µM; in assay [9] it was 13.8 µM; in assay [10], 1.9 µM; in [14], 5.62 µM; in assay [11], 8.26 µM. For the same compound, the TGI in [12] stood at 27.4 µM; in assay [13] it was 1.91 µM.
As to `Cc1cc2c(cc1C)[n+](=O)c(C(=O)N1CCN(c3ccc([N+](=O)[O-])cc3)CC1)c(C)n2[O-]`, the TGI in assay [1] was above 100 µM; in assay [2], above 100 µM; in [3], 12.7 µM; in assay [4], above 100 µM; in [5], above 100 µM; in assay [6] it was above 100 µM. The concentration for total growth inhibition (TGI) was above 100 µM in assay [7]; above 100 µM in assay [8]; above 100 µM in [9]; above 100 µM in [10]; 57.1 µM in assay [14]; above 100 µM in assay [11]. Also, the TGI in assay [12] and in assay [13] was above 100 µM in each case.
As for `N=C(N)n1[nH]c2c(c1=O)CCCC2`, the concentration for total growth inhibition (TGI) in assay [1], in [2], in [3], in [4], in assay [5] and in assay [6] was above 100 µM each time. Also, the TGI in assay [7], in [8], in assay [9], in [10], in [14] and in assay [11] was above 100 µM each time. For the same compound, the TGI in assay [12] and in assay [13] was above 100 µM throughout.
For `COc1ccc(-n2c(C)nc3ccc(NC4OCC(O)C(O)C4O)cc3c2=O)cc1` (stereo not drawn), the total growth inhibition concentration (TGI) in [1] is above 100 µM; in assay [3] it was above 100 µM; in [4], above 100 µM; in assay [5], 68.5 µM and 80.2 µM; in [6], above 100 µM; in assay [7], above 100 µM. Besides, the total growth inhibition concentration (TGI) in [8] was 84.7 µM and > 100 µM; in [9], above 100 µM; in assay [10], 49.4 µM and 61.6 µM; in assay [14] it was above 100 µM; in assay [11], above 100 µM; in assay [12], above 100 µM. Besides, in assay [13], the concentration for total growth inhibition (TGI) is > 100 µM and 72.6 µM. Further, in assay [4], the GI50 was > 100 µM and 39.5 µM.
With `COc1cc(C(N)=O)cc(NC(=O)/C=C/c2ccccc2)c1OC`, the TGI in assay [1], in assay [2], in assay [3], in assay [4], in assay [5] and in [6] was above 100 µM in each case. The TGI in assay [7], in assay [8], in assay [9], in [10], in [14] and in assay [11] was above 100 µM in each case. The TGI in assay [12] and in assay [13] was above 100 µM throughout.
`COP1(=O)NCc2ncccc2O1` (stereo not drawn): the TGI in assay [1], in [2], in assay [3], in assay [4], in assay [5] and in assay [6] was above 100 µM throughout. For the same compound, the concentration for total growth inhibition (TGI) in assay [7], in [8], in assay [9], in assay [10], in assay [11] and in assay [12] was above 100 µM in each case. In [13], this compound had a TGI above 100 µM.

As usually defined, the TGI is the concentration giving total growth inhibition. A lower TGI goes with greater sensitivity of the cells. One may read the GI50 as the concentration giving 50% growth inhibition.
